Measurements: patent publication US12264127B1, “8-((3-formyl-4-hydroxyphenyl)diazenyl)naphthalene-1,3-disulfonic acid as an antioxidant compound” (KING FAISAL UNIVERSITY, priority 2023, dated 2025)

Assay: DPPH radical scavenging antioxidant test
Assay type: biochemical
Conditions: 517 nm; for Inhibition (radical scavenging inhibition): 0.2 mL DPPH (0.75 mM), compound 3 μM in ethanol, 30 min incubation in the dark
Experimental: The antioxidant properties of the 8-((3-formyl-4-hydroxyphenyl)diazenyl)naphthalene-1,3-disulfonic acid were studied by adding 0.2 mL DPPH (0.75 mM)) to compound 8-((3-formyl-4-hydroxyphenyl)diazenyl)naphthalene-1,3-disulfonic acid (III) (3 μM) in ethanol. After 30 min of incubation in the dark, the absorbance was read against a blank at 517 nm. Ascorbic acid (vitamin C) was used as standard antioxidants (positive control). A blank sample was prepared by 0.2 ml of DPPH in 3 ml ethanol. A negative control sample was run using ethanol instead of the sample. The radical scavenging inhibition was calculated using the following equation: […]
The antioxidant activity for the synthesized compound is listed in Table 1, using Vitamin C as a reference.

Structure (SMILES)	Inhibition (radical scavenging inhibition) [%]	antioxidant potential compared to vitamin C (in words) (DPPH in vitro test, vitamin C as positive control)
O=C1O[C@H]([C@@H](O)CO)C(O)=C1O [vit c, Ascorbic acid, reference compound]	74	–
O=Cc1cc(N=Nc2cccc3cc(S(=O)(=O)O)cc(S(=O)(=O)O)c23)ccc1O [Product III, 8-((3-formyl-4-hydroxyphenyl)diazenyl)naphthalene-1,3-disulfonic acid]	54	high potential as an antioxidant compared to vitamin C
